Patent publication US5744478A, “Thiazolo [3,2-a] quinoline and thiazolo [3,2-a] naphthyridine derivatives” (Bayer Aktiengesellschaft, priority 1994, dated 1998)
Values after ≈ are worked out from the molar mass of the structure shown.

Assays:
Experiment in all cases: MIC by serial dilution on Iso-Sensitest Agar
Assay type in all cases: cell-based
[1] = test system: Providencia sp. 12012; conditions: 37° C., about 20 hours, about 10^4 colony-forming particles
Protocol: (§1) The minimum inhibitory concentrations (MIC) of the compounds according to the invention were determined by serial dilution methods on Iso-Sensitest Agar (Oxoid). For each test substance, a number of agar plates were prepared which, in each case at double the dilution, contained decreasing concentrations of the active compound. The agar plates were inoculated using a multipoint inoculator (Denley). For inoculation, overnight cultures of the pathogens were used which had previously been diluted such that each inoculation point contained about 10^4 colony-forming particles. The inoculated agar plates were incubated at 37° C., and the bacterial growth was read off after about 20 hours. The MIC value (μg/ml) indicates the lowest active compound concentration at which no growth was to be observed using the naked eye.

[2] = test system: Enterococcus faecalis 9790; conditions: 37° C., about 20 hours, about 10^4 colony-forming particles
Protocol: as §1

[3] = test system: Enterococcus faecalis 27101; conditions: 37° C., about 20 hours, about 10^4 colony-forming particles
Protocol: as §1

[4] = test system: Staphylococcus aureus ICB 25701; conditions: ICB25701, 37° C., about 20 hours, about 10^4 colony-forming particles
Protocol: as §1

[5] = test system: Micrococcus luteus 9341; conditions: 37° C., about 20 hours, about 10^4 colony-forming particles
Protocol: as §1

[6] = test system: Staphylococcus aureus ATCC29213; conditions: 37° C., about 20 hours, about 10^4 colony-forming particles
Protocol: as §1

[7] = test system: Klebsiella pneumonia 63; conditions: Klebsiella pneumoniae, 37° C., about 20 hours, about 10^4 colony-forming particles
Protocol: as §1

[8] = test system: E. coli Neumann; conditions: Escherichia coli, 37° C., about 20 hours, about 10^4 colony-forming particles
Protocol: as §1

[9] = test system: Staphylococcus aureus 133; conditions: 37° C., about 20 hours, about 10^4 colony-forming particles
Protocol: as §1

[10] = test system: E. coli ATCC 25922; conditions: Escherichia coli, ATCC25922, 37° C., about 20 hours, about 10^4 colony-forming particles
Protocol: as §1

[11] = test system: Klebsiella pneumonia 8085; conditions: Klebsiella pneumoniae, 37° C., about 20 hours, about 10^4 colony-forming particles
Protocol: as §1

[12] = test system: Staphylococcus aureus ICB 25768; conditions: ICB25768, 37° C., about 20 hours, about 10^4 colony-forming particles
Protocol: as §1

MIC [1] [µg/mL] | MIC [2] [µg/mL] | MIC [3] [µg/mL] | MIC [4] [µg/mL] | MIC [5] [µg/mL] | MIC [6] [µg/mL] | MIC [7] [µg/mL] | MIC [8] [µg/mL] | MIC [9] [µg/mL] | MIC [10] [µg/mL] | MIC [11] [µg/mL] | MIC [12] [µg/mL] | SMILES
≤ 0.015 | ≤ 0.015 | ≤ 0.015 | 0.06 (≈ 0.136 µM) | ≤ 0.015 | ≤ 0.015 | ≤ 0.015 | ≤ 0.015 | ≤ 0.015 | ≤ 0.015 | ≤ 0.015 | 0.5 (≈ 1.13 µM) | CC1C=CC(N)C2CN(c3c(F)cc4c(=O)c(C(=O)O)c5scc6n5c4c3OC6)CC12 (stereo not drawn) [Example 5, 8-(2-Amino-5-methyl-8-azabicyclo[4.3.0]non-3-en-8-yl)-7-fluoro-5-oxo-9,1-(epoxymethano)-5H-thiazolo[3,2-a]quinoline-4-carboxylic acid]
≤ 0.015 | 0.03 (≈ 0.0722 µM) | 0.03 (≈ 0.0722 µM) | 0.5 (≈ 1.2 µM) | 0.125 (≈ 0.301 µM) | ≤ 0.015 | ≤ 0.015 | ≤ 0.015 | ≤ 0.015 | ≤ 0.015 | ≤ 0.015 | 32 (≈ 77 µM) | O=C(O)c1c(=O)c2cc(F)c(N3C[C@@H]4CCCN[C@@H]4C3)c3c2n2c(csc12)CO3 [Example 2]
≤ 0.015 | ≤ 0.015 | ≤ 0.015 | 0.06 (≈ 0.136 µM) | ≤ 0.015 | ≤ 0.015 | ≤ 0.015 | ≤ 0.015 | ≤ 0.015 | ≤ 0.015 | ≤ 0.015 | 0.5 (≈ 1.13 µM) | CNC1C=CCC2CN(c3c(F)cc4c(=O)c(C(=O)O)c5scc6n5c4c3OC6)CC21 (stereo not drawn) [Example 3, 7-Fluoro-8-(2-methylamino-8-azabicyclo[4.3.0]non-3-en-8-yl)-5-oxo-9,1-(epoxymethano)-5H-thiazolo[3,2-a]quinoline-4-carboxylic acid]
≤ 0.015 | ≤ 0.015 | ≤ 0.015 | 0.06 (≈ 0.14 µM) | ≤ 0.015 | ≤ 0.015 | ≤ 0.015 | ≤ 0.015 | ≤ 0.015 | ≤ 0.015 | ≤ 0.015 | 0.25 (≈ 0.585 µM) | NC1C=CCC2CN(c3c(F)cc4c(=O)c(C(=O)O)c5scc6n5c4c3OC6)CC12 (stereo not drawn) [Example 4, 8-(2-Amino-8-azabicyclo[4.3.0]non-3-en-8-yl)-7-fluoro-5-oxo-9,1-(epoxymethano)-5H-thiazolo[3,2-a]quinoline-4-carboxylic acid]
